Calls of active or inactive are those of the source.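 Rule for the calls: active = compounds giving half or more protection of infected cells from virus-caused growth loss, again on retest; inactive = the rest.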
Tested on: CEM cells HIV-1 protection, formazan growth assay
Test: NCI AIDS Antiviral Assay
Details: for IC50: measured here: growth of uninfected CEM cells
In short: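 Human CEM cells, uninfected and HIV-1-infected, received five drug concentrations, and growth was read by soluble formazan assay. Compounds giving at least 50% protection were retested; reproducible 100% protection defined confirmed active.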

SMILES	EC50 [µM]	IC50 [µM]	outcome
CC1=C(C2=C(C)C(=O)C(=O)c3cc(C)ccc32)c2ccc(C)cc2C(=O)C1=O	> 200	0.0631	–
O=c1c2c3c(sc2nc2n1N=C(c1ccc(Br)cc1)CS2)CCCC3	> 200	> 200	–
Brc1ccc2c(C3CN[C@@H](c4c[nH]c5cc(Br)ccc45)CN3)c[nH]c2c1 (some centres undefined)	> 100	4.57	–
CCCCCCCCCCCCC(N=[N+]=[N-])C(=O)OCC1OC(n2cc(C)c(=O)[nH]c2=O)CC1O (centres undefined)	> 20.4	> 20.4	–
CSc1nc(NC2CCCC2)c2cc[nH]c2n1	> 200	43.7	–
C[C@]12CC/C(=N/O)C(O)=C1CC[C@@H]1C2CC[C@]2(C)NC(=O)CCC12 (some centres undefined)	> 282	132	–
CCOC(=O)C(=CNC(Cc1c[nH]c2ccccc12)C(=O)OC)C(=O)OCC (centres undefined)	–	–	inactive
CN(C)/N=C/c1cn(C)c(=O)n(C)c1=O	> 200	> 200	–
CCOc1cc(C2SCC(=O)N2c2ccc(Oc3ccc(Cl)cc3)c(Cl)c2)ccc1O (centres undefined)	> 200	27.5	–
CCCCCCCCCC1CC(=O)Oc2cccc(O)c21 (centres undefined)	> 25.1	> 25.1	–
CC1(C)CCCCCCCCCC(C)(CCCO)C1=O (centres undefined)	> 200	26.9	–
O=C1C(Cl)=C(N2CCN(C3=C(Cl)C(=O)c4ccccc4C3=O)CC2)C(=O)c2ccccc21	> 7.76	1.32	–
C[N+]12C=CC=C1C(N1CCCC1)c1sc(-c3ccc(Cl)cc3)cc12 (centres undefined)	> 200	12.9	–
CCOC(=O)c1c(-c2ccccc2)nc2c(OC)nccn12	> 200	126	–
CCCCCn1cnc2c(=S)nc(N)[nH]c21	> 200	195	–
Nc1ccc(S(=O)(=O)NCCSSCCNS(=O)(=O)c2ccc(N)cc2)cc1	> 200	45.7	–
C/C1=C\CC[C@@]2(C)O[C@@H]2[C@H]2OC(=O)C(C)C2C[C@H]1O (some centres undefined)	> 200	> 200	–
CCOC(=O)c1cc2c3c(c(O)c(OC)c2s1)N(C(=O)c1cc2c4c(c(O)c(OC)c2s1)N(C(C)=O)CC4)CC3	–	–	inactive
Nc1ncnc2oc(-c3ccccc3)nc12	> 195	> 195	–
COc1ccc2c(c1)C(=O)/C(=C/c1ccccc1)C2	> 200	47.9	–
Cc1nc2c(Br)cc(Br)cc2c(=O)n1-c1ccccc1N	> 200	67.6	–
Cc1ccc2c(n1)C(N1CCCC1)=CC(=O)C2=O	–	–	inactive
C/C(=N/OC(=O)N(C)C)c1cccc(Cl)c1	> 200	166	–

SMILES	EC50 [µM]	IC50 [µM]	outcome
Clc1c2ccccc2nc2c1[nH]c1ccccc12	> 200	11.2	–
O=[N+]([O-])C(C=C(n1nnc2ccccc21)n1nnc2ccccc21)=C(n1nnc2ccccc21)n1nnc2ccccc21	> 200	> 200	–
[Ni+2].c1nnc(N2CNCCNCN(c3nnc[n-]3)CNCCNC2)[n-]1	> 100	97.7	–
Cc1ccc(N=NC2S/C(=C(\C#N)c3nc4ccccc4[nH]3)N(c3ccccc3)C2=O)cc1 (centres undefined)	> 2.24	> 2.24	–
O=NC1C2C=CC(C2)C1Cl (centres undefined)	> 200	> 200	–
CCOC(=O)C1C/C(=N\OC(C)=O)c2ccc(OC)c(OC)c2C1 (centres undefined)	–	–	inactive
O=c1c(/C=N/OCCCCO/N=C/c2cc3c(cc2[N+](=O)[O-])OCO3)coc2c(Cl)cc(Cl)cc12	> 200	75.9	–
O=P(c1ccccc1)(c1ccccc1)P(=O)(c1ccccc1)c1ccccc1	> 200	> 200	–
CC(=O)NC(Cc1cnc[nH]1)C(=O)N1CCCC1C(N)=O (centres undefined)	> 200	> 200	–
CN(O)C(=O)c1ccc(OCc2cccc(Cl)c2)cc1	> 200	12.6	–
O=C(c1ccccc1)C1(C(=O)c2ccccc2)/C(=N\O)C2CCC1C2 (centres undefined)	> 53.7	20.9	–
CCCCCSCCCCCCCC(=O)O	> 200	58.9	–
[Cl][Bi]([Cl])([c]1ccccc1)([c]1ccccc1)[c]1ccccc1	> 19.5	3.39	–
Cc1cccc(C(C)(C)C)c1NC(=O)CC1C(=O)Nc2ccccc2S1=O (centres undefined)	–	–	inactive
Fc1ccc(/C=C2\COCC3=C2NC(=S)NC3c2ccc(F)cc2)cc1 (centres undefined)	–	–	inactive
S=C1NC2=C(COC/C2=C\c2cccc(Cl)c2)C(c2cccc(Cl)c2)N1 (centres undefined)	–	–	inactive
CCOC(=O)NN(C(=O)OCC)C(=C(C1CCCCC1)N1CCOCC1)N(NC(=O)OCC)C(=O)OCC	126	170	–
COc1ccc(N=Cc2cc(OC)c(OC)c(OC)c2)cc1	> 33.1	> 33.1	–
CC(=O)NS(=O)(=O)c1ccc(NC(=O)COC(=O)c2cccc3c(=O)c4ccccc4[nH]c23)cc1	> 363	245	–
CC(=O)/C(C=Nc1c(C)n(C)n(-c2ccccc2)c1=O)=C(/C)O	> 200	> 200	–
CN=C1OC2(c3ccccc3)C3=C(OC(=NC)N2C)C(=O)OC3(c2ccccc2)N1C (centres undefined)	> 200	148	–
Cc1cc(Cl)cc2c1NC(=O)C2(O)C(C(=O)c1ccccc1)c1ccccc1 (centres undefined)	> 91.2	> 91.2	–
Cc1cn([C@@H]2C[C@](C)(CO)N(C)O2)c(=O)[nH]c1=O	> 200	> 200	–

SMILES	EC50 [µM]	IC50 [µM]	outcome
CC(C)(C)[Si](C)(C)OCC1OC(n2cc(I)c(N)nc2=O)C(O[Si](C)(C)C(C)(C)C)C1O[Si](C)(C)C(C)(C)C (centres undefined)	> 200	6.76	–
O=C1N=NC2=C1c1c3ccccc3c(O)n1CC2	> 200	166	–
COc1ccccc1Cc1nc(-c2ccccc2)nn(C2OC(COC(C)=O)C(OC(C)=O)C(OC(C)=O)C2OC(C)=O)c1=S (centres undefined)	–	–	inactive
CCOC(=O)c1[nH]c2c(cc(C=O)c3ccccc32)c1C	> 200	60.3	–
CCc1n[nH]c(=O)n1NC(=O)/C=C\C(=O)O	> 200	> 200	–
COC(=O)/C=C(\C)CCC1SC1(C)C (centres undefined)	> 100	> 100	–
CC1=NC(=Cc2cc(Br)cc(Br)c2)C(=O)N1n1c(-c2ccccc2)nc2ccccc2c1=O	> 200	87.1	–
CC1CN(c2ccc(Cl)cc2)CC(C)(C)OC(=O)O1 (centres undefined)	> 331	21.4	–
CNC(=S)/C(C#N)=C(\N)N1CCCC1	> 200	> 200	–
CC(C)CN1CC(=O)N2Cc3ccccc3CN2C(=O)C1	> 200	> 200	–
NC(CSCCSCC(N)C(=O)O)C(=O)O (centres undefined)	> 10	> 10	–
OC1C#CCSCC#C/C=C\1 (centres undefined)	> 200	10.5	–
COc1ccc2nc(NC(=O)C(=O)CC(=O)c3ccc(Cl)cc3)sc2c1	–	–	inactive
O=C1OCC2(CO1)CC1C=CC2C1 (centres undefined)	> 200	> 200	–
COc1cc(Cc2c(OC)c(OC)cc(C)c2C(=O)O)cc(OC)c1	> 145	> 145	–
CC(=O)OCC1OC(n2cc(F)c(=O)[nH]c2=O)C(NC(=O)N(CCCl)N=O)C(OC(C)=O)C1OC(C)=O (centres undefined)	> 457	66.1	–
C[C@@H]1C=C[C@@H]2COC(=O)C2=C[C@@H]1c1ccccc1	–	–	inactive
CCOC(=O)NC(Nc1ccc(C(=O)O)cc1)(C(F)(F)F)C(F)(F)F	> 200	> 200	–
Cc1nn(C(=O)c2c(O)cccc2Br)c(C)c1N=Nc1ccccc1	–	–	inactive
C=C(C)C1C/C=C(/C)CCCC2(CCC3=C(CC(C(=C)C)C/C=C(/C)CCC3)O2)C(=O)C1 (centres undefined)	> 30.9	> 30.9	–
Cc1ccc(SC(=O)N2C(=S)NC(=NC3CCCCC3)C23CCCCC3)cc1	> 200	32.4	–
Fc1ccc(NC(=S)N/N=C\c2c(Cl)cccc2Cl)cc1	> 275	> 275	–
O=C(O)C1CSCN1C(=O)c1ccccc1SSc1ccccc1C(=O)N1CSCC1C(=O)O (centres undefined)	85.1	> 100	–

SMILES	EC50 [µM]	IC50 [µM]	outcome
COc1ccc(OC(C)C(=O)O)c2c(=O)ccccc12 (centres undefined)	–	–	inactive
CCOC(=O)C1C(c2ccc(Br)cc2)N(Cc2ccccc2)C(c2ccc(Br)cc2)C(C(=O)OC)S1(=O)=O (centres undefined)	> 2.19	> 2.19	–
O=C(CCC(=O)Nc1ccc(Cl)c(Cl)c1)CC(=O)c1ccc(Cl)cc1	–	–	inactive
S=c1nc(N2CCCCC2)ss1	–	–	inactive
O=C(NNC1=NCCCN1)Nc1ccccc1	> 200	> 200	–
CCN(CC)/[N+]([O-])=N/OC	–	–	inactive
CC1(C)OC(=O)C(Cc2ccccc2)(Cc2ccccc2)C(=O)O1	–	–	inactive
CCCC/C(CC)=N/NS(=O)(=O)c1ccc(NC(C)=O)cc1	> 398	288	–
COCCN(C(C)=O)C1CCC2(SCCS2)c2[nH]c3ccccc3c21 (centres undefined)	> 200	> 200	–
CCOC(=O)c1nc2ccc(C(F)(F)F)cc2nc1Nc1ccc(Cl)c(Cl)c1	–	–	inactive
C/C=C/C(C1=C(O)c2ccccc2C(=O)C1=O)C1=C(O)c2ccccc2C(=O)C1=O	> 200	83.2	–
c1ccc(C2(c3ccccc3)OCCO2)cc1	> 200	> 200	–
Nc1nc2ccccc2nc1N	> 200	> 200	–
O=C(c1ccccc1)c1c2ccccn2c2cccc[n+]12	> 200	53.7	–
COC(=O)C(Cn1cnc2c(N)ncnc21)P(=O)(OC)OC (centres undefined)	> 759	39.8	–
OC[C@@H](O)[C@H](O)[C@H](O)[C@@H](O)C1SCCCS1	> 200	> 200	–
CCOC(=O)c1nc2ccccc2nc1NCc1ccc(Cl)cc1Cl	> 100	72.4	–
COc1ccc2c(c1)c1c(n2CCN2CCOCC2)-c2cccc(OC)c2CC1	–	–	inactive
O=c1c2cc(Br)ccc2n(C2OC(CO)C(O)C(O)C2O)c(=S)n1-c1ccccc1 (centres undefined)	> 52.5	> 52.5	–
CCOC(=O)c1ccc(N(CC(=O)O)S(=O)(=O)c2ccc(C)cc2)s1	> 20	> 20	–
CCC(=C(C#N)C#N)c1cc(OC)c(OC)c(OC)c1	> 26.3	> 26.3	–
CCOc1ccc2nc(NC(=O)C3C4CCC(O4)C3C(=O)O)sc2c1 (centres undefined)	> 200	135	–
